Five compounds from US6828450B2, “Triptycene analogs” (Kansas State University Research Foundation, priority 2000, dated 2004) can be followed below.

Structures are written as SMILES. “And” between values parts separate entries of the source, which are not always exact repeats. Equal entries are not always repeated. Where two headings read alike, the source gives them in different places.

In data set [1] the test system is L1210 cells. The experiment in a line: DNA synthesis (3H-thymidine incorporation) in L1210 cells. The format is cell-based, murine. As to conditions: for concentration at which the drug becomes effective against DNA synthesis: 2-h treatment. The method, then: FIG. 9. […] Cells (1.14×10^6/0.5 ml of RPMI 1640 medium) were incubated at 37° C. for 90 min in the presence or absence (control) of the indicated concentrations of drugs, which are plotted on a logarithmic scale, and then pulse-labeled for an additional 30 min to determine the rate of ^3H-thymidine incorporation into DNA.
FIG. 11. […] The cellular uptake of ^3H-thymidine (striped) and the rate of ^3H-thymidine incorporation into DNA (open) were determined in cells (1.38×10^6/0.5 ml of RPMI 1640 medium) respectively preincubated at 37° C. for 15 or 90 min in the presence or absence (control) of 7 μM concentrations of the indicated compounds. For the cellular transport of nucleosides, preincubated cells were then exposed to 1 μCi of ^3H-thymidine for 30 sec at 37° C. […] For DNA synthesis, preincubated cells were then pulse-labeled with 1 μCi of ^3H-thymidine for an additional 30 min at 37° C.
FIG. 12. […] The cellular uptake of ^3H-thymidine (striped) and the rate of ^3H-thymidine incorporation into DNA (open) were determined in cells (1.64×10^6/0.5 ml of RPMI 1640 medium) respectively preincubated at 37° C. for 15 or 60 min in the presence or absence (control) of 10 and 25 μM TT2 or 25 μM H10. […] After preincubation, vehicle-treated controls were similarly spun and washed. For the cellular transport of nucleosides, preincubated cells were then exposed, in the presence (+) or absence (−) of TT2 or H10, to 1 μCi of ^3H-thymidine for 30 sec at 37° C. […] For DNA synthesis, preincubated cells were then pulse-labeled with 1 μCi of ^3H-thymidine for an additional 30 min at 37° C. in the presence (+) or absence (−) of TT2 or H10. […] Bars: means±SD (n=3).
For nucleic acid and protein syntheses, L1210 cells were resuspended in fresh FCS-containing RPMI 1640 medium at a density of about 1.1-1.6×10^6 cells/0.5 ml. To estimate the rate of DNA synthesis, HL-60-S, HL-60-RV and HL-60-R8 cells were resuspended in fresh FCS-containing RPMI 1640 medium at a density of 5×10^5 cells/0.5 ml.

Data set [2] relates to L1210 cells. The experiment in a line: L1210 tumor cell proliferation assay (Coulter counter). Conditions: for inhibition at 0.041 µM: read-out: % inhibition of L1210 cell proliferation; for IC50: read-out: IC50, inhibition of L1210 cell proliferation; for concentration giving almost total (maximal) inhibition of proliferation and viability: growth and viability. The method, then: FIG. 1. […] For tumor cell growth and viability, L1210 cells were respectively seeded in triplicate at initial densities of 1×10^4 and 1.11×10^4 cells/0.5 ml/well in RPMI 1640 medium containing 7.5% FCS and penicillin (100 IU/ml)-streptomycin (100 μg/ml), and grown for 4 days in the presence or absence (control) of 256 nM concentrations of the indicated compounds in a humidified incubator at 37° C. with 5% CO2 in air. Cell density was monitored using a Coulter counter. […] The ability of viable cells/0.5 ml to bioreduce 0.1 ml of MTS:PMS (20:1) reagent over a 3-h incubation period at 37° C. was assessed by measuring the absorbamce of the water-soluble formazan products at A490 nm.
FIG. 3. […] The protocol of the experiment was identical to that of FIG. 1. […] Drug concentrations are plotted on a logarithmic scale.
TT0 was purchased from Aldrich (Milwaukee, Wis.). All solutions of synthetic TTs and tricyclic pyrone H10, vincristine (VCR; a gift from Lilly Researeh Laboratories, Indianapolis, Ind.) and camptothecin (CPT; from Sigma Chemical Co., St Louis, Mo.) were dissolved and diluted in dimethyl sulfoxide (DMSO), whereas daunomycin (DAU) (from Sigma) solutions were prepared in 0.1 M potassium phosphate buffer, pH 7.4, containing 0.9% NaCl. Suspension cultures of murine L1210 lymphocytic leukemia cells (American Type Culture Collection, Rockville, Md.) were maintained in continuous exponential growth by twice-a-week passage in RPMI 1640 medium supplemented with 7.5% fortified bovine calf serum (FCS; HyClone Laboratories, Logan, Utah) and penicillin (100 IU/ml)-streptomycin (100 μg/ml), and incubated in the presence or absence of drugs at 37° C. in a humidified atmosphere containing 5% CO2. […] Control cells incubated in the absence of drugs were similarly treated with vehicle only and, in every experiment, all incubates received the same volume of solvent. For drug removal, incubates were spun at 200×g for 10 min, drug-containing supernatants were discarded, and intact cells were washed thrice with 1 ml of the above RPMI 1640 culture medium and resuspended in 0.5 ml of fresh medium for further incubation.
For tumor cell growth, L1210 cells were resuspended in fresh FCS-containing RPMI 1640 medium, plated at an initial density of 1×10^4 cells/0.5 ml, and incubated in 48-well Costar cell culture plates (Costar, Cambridge, Mass.). Except when otherwise specified, cells were grown for 4 days in the presence or absence of drugs and their density was monitored every 24 h using a Coulter counter (Coulter Electronics, Luton Beds, UK).

Turning to `COc1cccc2c1C(=O)c1c(O)c3c(c(O)c1C2=O)C[C@@](O)(C(C)=O)C[C@@H]3O[C@H]1C[C@H](N)[C@H](O)[C@H](C)O1` [DAU, daunomycin, reference compound], the “concentration at which the drug becomes effective against DNA synthesis” value with L1210 cells [1] turned out to be 0.256 µM. The “times DAU prevents DNA synthesis more effectively than TT2” value in the data set with L1210 cells [1] (L1210, from IC50 values) is “about 6 times”. The “times DAU is more cytostatic than TT2” value with L1210 cells [2] (L1210, from IC50 values) is “about 6 times”. Further, the “times DAU is more cytostatic/cytotoxic than TT2” value with L1210 cells [2] (L1210, growth and viability, 4 days) is on record as 3.5-6 times. The inhibition at 0.041 µM came out at 42% in the data set on L1210 cells [2] (Mus musculus, L1210, 48 h) and 77% with L1210 cells [2] (Mus musculus, L1210, 96 h). For the same compound, the IC50 in the data set on L1210 cells [2] (Mus musculus, L1210, 48 h) was 50 nM; with L1210 cells [2] (Mus musculus, L1210, 96 h) it was 25 nM. Further, in the data set with L1210 cells [2] (day 4), the “concentration giving almost total (maximal) inhibition of proliferation and viability” value came to 102 nM.

Regarding `COC1=CC(=O)C2=C(C1=O)C1C3=C(C(=O)C=CC3=O)C2c2ccccc21` (stereo not drawn) [TT2, 2-Methoxy-9,10-dihydro-9,10-[1′,2′]benzenoanthracene-1,4,5,8-tetraone], the “% inhibition of DNA synthesis” value is 69% in the data set with L1210 cells [1] (10 μM TT2, 60-min preincubation) and 97% with L1210 cells [1] (25 μM TT2, 60-min preincubation). In addition, the “effect on DNA synthesis” value in the data set with L1210 cells [1] (25 μM TT2, 2-h treatment) is reported as “totally inhibited”. Besides, the “concentration at which the drug becomes effective against DNA synthesis” value in the data set with L1210 cells [1] is reported as “greater than 1.6 μM”. Further, the “reversibility of the inhibition of DNA synthesis upon drug removal” value with L1210 cells [1] (10 and 25 μM TT2 or 25 μM H10, 60-min preincubation) was “irreversible”. The IC50 in the data set on L1210 cells [1] (90 min drug + 30 min pulse-labeling (2 h), read-out: IC50, inhibition of DNA synthesis in L1210 cells) is 6000 nM and ~6000 nM; in the data set on L1210 cells [2] (day 2), 300 nM; with L1210 cells [2] (day 4) it was 150 nM. Besides, the “times TT2 inhibits DNA, RNA and protein syntheses less effectively than DAU” value in the data set on L1210 cells [1] (L1210, after 2-3 h, IC50 values compared) is listed as 3-6 times. In the data set with L1210 cells [2], the “times DAU is more cytostatic/cytotoxic than TT2” value is on record as 3.5-6 times. In addition, the “% inhibition of L1210 cell proliferation” value in the data set on L1210 cells [2] (256 nM TT2, day 2) worked out at 44%. Besides, the “% inhibition of L1210 cell growth (cytostatic)” value in the data set on L1210 cells [2] (256 nM, 4 days, 0.256 µM) came out at 68%. Moreover, the “concentration giving almost total (maximal) inhibition of proliferation and viability” value in the data set on L1210 cells [2] (day 4) is listed as no less than 640 nM.

`COC(=O)C1=C(C(=O)OC)C[C@H]2C(=O)C3=C(C(=O)[C@H]2C1)C1C2=C(C(=O)[C@H]4CC(C(=O)OC)=C(C(=O)OC)C[C@H]4C2=O)C3c2ccccc21` [TT4, (4aS*,7aR*,11aS*,14aR*)-Tetramethyl 1,4,4a,5,6,7,7a,8,11,11a,12,13,14,14a-tetradecahydro-5,7,12,14-tetraoxo-6,13-[1′,2′]benzenopentacene-2,3,9,10-tetracarboxylate]: the “effect on DNA synthesis” value in the data set on L1210 cells [1] (7 μM, 2 h) is “alter neither”. Moreover, the “inhibitory effect on L1210 cell growth” value in the data set on L1210 cells [2] (256 nM, 4 days) was “inactive”.

Consider `COC(=O)C1=C(C(=O)OC)C[C@H]2[C@@H](C1)[C@@H](O)C1=C(C3C4=C(C1c1ccccc13)[C@@H](O)[C@H]1CC(C(=O)OC)=C(C(=O)OC)C[C@H]1[C@H]4O)[C@H]2O` [TT12, (4aS*,5S*,7R*,12S*,14R*,7aR*,11aS*,14aR*)-Tetramethyl 1,4,4a,5,6,7,7a,8,11,11a,12,13,14,14a-tetradecahydro-5,7,12,14-tetrahydroxy-6,13-[1′,2′]benzenopentacene-2,3,9,10-tetracarboxylate], for which the “effect on DNA synthesis” value in the data set with L1210 cells [1] (7 μM, 2 h) is recorded as “alter neither”. In addition, in the data set on L1210 cells [2] (256 nM, 4 days), the “inhibitory effect on L1210 cell growth” value is “inactive”.

In the case of `COC1=C(Br)C(=O)C2=C(C1=O)C1C3=C(C(=O)C=C(N(C)C)C3=O)C2c2ccccc21` (stereo not drawn) [TT16, 2-Bromo-3-methoxy-6-(dimethylamino)-9,10-dihydro-9,10-[1′,2′]benzenoanthracene-1,4,5,8-tetraone], the “potency on DNA synthesis compared with TT2” value with L1210 cells [1] (FIG. 13) is reported as “as potent as TT2”.
